≈ marks a conversion by molar mass, not a printed value. Where “and” joins values, the source holds several entries; their conditions need not be identical. Identical values can stand only once.

Some test systems named below: Bacillus subtilis; Escherichia coli; Staphylococcus aureus; Pseudomonas aeruginosa.
Common to all, as to test: ≥ marks a high value that may be exact or a test limit, other limits are often not marked, values filed in µg/mL are converted to µM
The subject of assay [1] is Staphylococcus aureus ATCC 25923.
The subject of assay [2] is Staphylococcus aureus ATCC 43300.
Assay [3] has as its system Candida albicans ATCC 2002.
Assay [4] relates to Escherichia coli ATCC 25922.
In assay [5] the test system is Pseudomonas aeruginosa PAO1.
Assay [6] concerns Candida albicans ATCC 90028.
Assay [7] concerns Pseudomonas aeruginosa ATCC 27853.
The subject of assay [8] is Staphylococcus aureus ATCC 29213.

Take `CC[C@H](C)[C@H](NC(=O)CNC(=O)[C@H](C)NC(=O)[C@H](C)NC(=O)[C@@H](NC(=O)[C@H](CCCCN)NC(=O)[C@H](CC(C)C)NC(=O)[C@@H](NC(=O)[C@@H]1CCCN1C(=O)CNC(=O)[C@@H](NC(=O)[C@@H](N)Cc1ccccc1)C(C)C)C(C)C)[C@@H](C)CC)C(=O)N[C@@H](CC(C)C)C(=O)N1CCC[C@H]1C(=O)N[C@H](C(=O)N[C@@H](C)C(=O)N[C@H](C(=O)N[C@H]1CSSC[C@@H](C(=O)O)NC(=O)[C@H](CCCCN)NC(=O)[C@H](CCCCN)NC(=O)[C@H](Cc2ccc(O)cc2)NC(=O)[C@H]([C@@H](C)CC)NC(=O)[C@H](CCCCN)NC1=O)[C@@H](C)CC)[C@@H](C)O` [FVGPVLKIAAGILPTAICKIYKKC]: the MIC worked out at 0.459 µM (≈ 1.17 µg/mL) in assay [1], 0.919 µM (≈ 2.34 µg/mL) in the assay on Bacillus subtilis, 3.68 µM (≈ 9.37 µg/mL) in assay [2] and 0.919 µM (≈ 2.34 µg/mL) in assay [3].

Take `CC(C)C[C@H](NC(=O)CN)C(=O)N[C@@H](CC(C)C)C(=O)N[C@@H](CC(=O)O)C(=O)N[C@@H](CC(C)C)C(=O)N[C@@H](CC(C)C)C(=O)N[C@@H](CCCCN)C(=O)N[C@@H](CC(C)C)C(=O)N[C@@H](CC(C)C)C(=O)N[C@@H](CC(C)C)C(=O)N[C@@H](CCCCN)C(=O)N[C@@H](C)C(=O)N[C@@H](C)C(=O)NCC(=O)O` [GLLDLLKLLLKAAG]: the MIC came out at 35 µM (≈ 50.3 µg/mL) in assay [4], 66 µM (≈ 94.9 µg/mL) in assay [5] and 10 µM (≈ 14.4 µg/mL) in [1].

For the compound `CC[C@H](C)[C@H](N)C(=O)N[C@@H](CC(N)=O)C(=O)N[C@@H](Cc1c[nH]c2ccccc12)C(=O)N[C@@H](CCCCN)C(=O)N[C@@H](CCCCN)C(=O)N[C@H](C(=O)N[C@@H](C)C(=O)N[C@@H](CO)C(=O)N[C@H](C(=O)NCC(=O)N[C@@H](CCCCN)C(=O)N[C@@H](CCC(=O)O)C(=O)N[C@H](C(=O)N[C@@H](CC(C)C)C(=O)N[C@@H](CCCCN)C(N)=O)C(C)C)[C@@H](C)CC)[C@@H](C)CC` [INWKKIASIGKEVLK], the MIC in the assay with Escherichia coli was 100 µM (≈ 173 µg/mL); in the assay on Bacillus subtilis it was at least 100 µM.

Take `CC[C@H](C)[C@H](N)C(=O)N[C@@H](CC(N)=O)C(=O)N[C@@H](Cc1c[nH]c2ccccc12)C(=O)N[C@@H](CCCCN)C(=O)N[C@@H](CCCCN)C(=O)N[C@H](C(=O)N[C@@H](Cc1ccccc1)C(=O)N[C@@H](CCC(=O)O)C(=O)N[C@@H](CO)C(=O)N[C@H](C(=O)N[C@@H](CCCCN)C(=O)N[C@@H](CC(N)=O)C(=O)N[C@@H](CC(C)C)C(=O)N[C@H](C(N)=O)C(C)C)C(C)C)[C@@H](C)CC` [INWKKIFESVKNLV]: the MIC in the assay on Escherichia coli and in the assay with Bacillus subtilis was 10 µM (≈ 17.2 µg/mL) in each case.

For `CC[C@H](C)[C@H](N)C(=O)N[C@@H](CC(N)=O)C(=O)N[C@@H](Cc1c[nH]c2ccccc12)C(=O)N[C@@H](CCCCN)C(=O)N[C@@H](CO)C(=O)N[C@H](C(=O)N[C@@H](Cc1ccccc1)C(=O)N[C@@H](CCC(=O)O)C(=O)N[C@@H](CCCCN)C(=O)N[C@H](C(=O)N[C@@H](CCCCN)C(=O)N[C@@H](CC(N)=O)C(=O)N[C@@H](CC(C)C)C(=O)N[C@H](C(N)=O)C(C)C)C(C)C)[C@@H](C)CC` [INWKSIFEKVKNLV], the MIC against Escherichia coli and in the assay on Bacillus subtilis was 15 µM (≈ 25.8 µg/mL) each time.

For `CC[C@H](C)[C@H](N)C(=O)N[C@@H](CC(N)=O)C(=O)N[C@@H](Cc1c[nH]c2ccccc12)C(=O)N[C@@H](CC(C)C)C(=O)N[C@@H](CCCN=C(N)N)C(=O)N[C@@H](CC(C)C)C(=O)NCC(=O)N[C@@H](CCCN=C(N)N)C(=O)N[C@@H](CCCN=C(N)N)C(=O)N[C@H](C(=O)N[C@@H](CC(C)C)C(=O)NCC(=O)N[C@@H](C)C(=O)N[C@@H](CC(C)C)C(N)=O)[C@@H](C)CC` [INWLRLGRRILGAL], the MIC in the assay with Escherichia coli was above 100 µM; against Bacillus subtilis it was 17.5 µM (≈ 28.9 µg/mL).

Turning to `CC[C@H](C)[C@H](NC(=O)[C@H](C)NC(=O)[C@H](CCCCN)NC(=O)[C@H](C)NC(=O)[C@@H](NC(=O)[C@H](CO)NC(=O)[C@H](CCCCN)NC(=O)[C@@H](NC(=O)[C@H](Cc1c[nH]c2ccccc12)NC(=O)[C@H](CCCCN)NC(=O)[C@H](CC(C)C)NC(=O)[C@@H](NC(=O)[C@H](CO)NC(=O)[C@H](CCCCN)NC(=O)[C@H](C)NC(=O)[C@@H](NC(=O)[C@H](C)NC(=O)[C@@H](N)CCCCN)[C@@H](C)CC)[C@@H](C)CC)[C@@H](C)CC)[C@@H](C)CC)C(N)=O` [KAIAKSILKWIKSIAKAI], the MIC worked out at 1.4 µM (≈ 2.77 µg/mL) against Staphylococcus aureus, 5.6 µM (≈ 11.1 µg/mL) against Escherichia coli and 11.2 µM (≈ 22.2 µg/mL) in the assay with Pseudomonas aeruginosa.

Turning to `CC(C)C[C@H](NC(=O)CNC(=O)[C@H](C)NC(=O)[C@H](CCCCN)NC(=O)[C@H](CC(C)C)NC(=O)[C@H](CCCCN)NC(=O)[C@H](C)NC(=O)[C@H](CC(C)C)NC(=O)CNC(=O)[C@H](C)NC(=O)[C@H](CCCCN)NC(=O)[C@H](Cc1c[nH]c2ccccc12)NC(=O)[C@H](CCCCN)NC(=O)[C@H](C)NC(=O)[C@H](CC(C)C)NC(=O)CNC(=O)[C@H](C)NC(=O)[C@H](CCCCN)NC(=O)[C@H](CC(C)C)NC(=O)[C@@H](N)CCCCN)C(=O)N[C@@H](C)C(N)=O` [KLKAGLAKWKAGLAKLKAGLA], the figures for the MIC with Staphylococcus aureus, against Escherichia coli and with Pseudomonas aeruginosa were 120 µM (≈ 256 µg/mL), 15 µM (≈ 32 µg/mL) and above 120 µM, respectively.

`CC[C@H](C)[C@H](NC(=O)[C@H](CCCN=C(N)N)NC(=O)[C@@H](N)CCCCN)C(=O)N[C@@H](C)C(=O)N[C@@H](CCC(N)=O)C(=O)N[C@@H](CCCN=C(N)N)C(=O)N[C@H](C(=O)N[C@@H](CCCCN)C(=O)N[C@@H](CC(=O)O)C(=O)N[C@@H](Cc1ccccc1)C(=O)N[C@@H](CC(C)C)C(=O)N[C@@H](CCCN=C(N)N)C(=O)O)[C@@H](C)CC` [KRIAQRIKDFLR]: the MIC was 3.24 µM (≈ 5 µg/mL) in assay [4], at least 40 µM in [6], 10 µM (≈ 15.4 µg/mL) in assay [7] and 20 µM (≈ 30.9 µg/mL) in assay [8].

Consider `CC[C@H](C)[C@H](NC(=O)[C@H](CCCN=C(N)N)NC(=O)[C@H](CCC(N)=O)NC(=O)[C@H](CCCCN)NC(=O)[C@@H](NC(=O)[C@H](CCCN=C(N)N)NC(=O)[C@@H](N)CCCCN)[C@@H](C)CC)C(=O)N[C@@H](CCCCN)C(=O)N[C@@H](CC(=O)O)C(=O)N[C@@H](Cc1ccccc1)C(=O)N[C@@H](CC(C)C)C(=O)N[C@@H](CCCN=C(N)N)C(=O)O` [KRIKQRIKDFLR], for which the minimum inhibitory concentration (MIC) amounted to 2.5 µM (≈ 4 µg/mL) in assay [4], 20 µM (≈ 32 µg/mL) in assay [6], 5 µM (≈ 8 µg/mL) in assay [7] and 20 µM (≈ 32 µg/mL) in assay [8].

`CC[C@H](C)[C@H](NC(=O)[C@H](CO)NC(=O)[C@H](C)NC(=O)[C@@H](NC(=O)[C@H](CCCCN)NC(=O)[C@H](CCCCN)NC(=O)[C@H](Cc1c[nH]c2ccccc12)NC(=O)[C@@H](N)CC(N)=O)[C@@H](C)CC)C(=O)NCC(=O)N[C@@H](CCCCN)C(=O)N[C@@H](CCC(=O)O)C(=O)N[C@H](C(=O)N[C@@H](CC(C)C)C(=O)N[C@@H](CCCCN)C(=O)N[C@@H](C)C(=O)N[C@@H](CC(C)C)C(N)=O)C(C)C` [NWKKIASIGKEVLKAL]: the MIC in the assay on Escherichia coli was 21 µM (≈ 37.7 µg/mL); against Bacillus subtilis, at least 46 µM.

As to `CC[C@H](C)[C@H](NC(=O)[C@H](C)NC(=O)[C@H](CCCN=C(N)N)NC(=O)[C@H](Cc1ccc(O)cc1)NC(=O)[C@H](CC(C)C)NC(=O)[C@H](CC(N)=O)NC(=O)[C@H](Cc1ccc(O)cc1)NC(=O)CNC(=O)[C@H](C)NC(=O)[C@@H](NC(=O)[C@@H](NC(=O)[C@@H](NC(=O)[C@H](CCCN=C(N)N)NC(=O)[C@@H](NC(=O)[C@@H](NC(=O)[C@@H](NC(=O)[C@@H]1CCCN1C(=O)[C@H](Cc1c[nH]c2ccccc12)NC(=O)[C@H](Cc1ccccc1)NC(=O)[C@H](CCCN=C(N)N)NC(=O)[C@H](CCCCN)NC(=O)[C@@H](NC(=O)[C@@H](N)CCCN=C(N)N)[C@@H](C)CC)C(C)C)C(C)C)[C@@H](C)CC)[C@@H](C)O)C(C)C)C(C)C)C(=O)N[C@@H](CCCCN)C(=O)N[C@@H](CCCCN)C(=O)O` [RIKRFWPVVIRTVVAGYNLYRAIKK], the minimal inhibitory concentration (MIC) in [4] was determined as 1.15 µM (≈ 3.52 µg/mL); in assay [1] it was 3.08 µM (≈ 9.38 µg/mL); against Bacillus subtilis, 1.54 µM (≈ 4.69 µg/mL); in assay [3], 0.769 µM (≈ 2.34 µg/mL).

Consider `CC[C@H](C)[C@H](NC(=O)[C@@H](NC(=O)[C@@H](NC(=O)[C@@H]1CCCN1C(=O)[C@H](Cc1c[nH]c2ccccc12)NC(=O)[C@H](Cc1ccccc1)NC(=O)[C@H](CCCN=C(N)N)NC(=O)[C@H](CCCCN)NC(=O)[C@@H](NC(=O)[C@@H](N)CCCN=C(N)N)[C@@H](C)CC)C(C)C)C(C)C)C(=O)N[C@@H](CCCN=C(N)N)C(=O)N[C@H](C(=O)N[C@H](C(=O)N[C@H](C(=O)N[C@@H](C)C(=O)NCC(=O)N[C@@H](Cc1ccc(O)cc1)C(=O)N[C@@H](CC(N)=O)C(=O)N[C@@H](CC(C)C)C(=O)N[C@@H](Cc1ccc(O)cc1)C(=O)O)C(C)C)C(C)C)[C@@H](C)O` [RIKRFWPVVIRTVVAGYNLY], for which the MIC in assay [4] is 61.2 µM (≈ 150 µg/mL); in assay [3], at least 45.9 µM.

With `CC(C)C[C@H](NC(=O)[C@H](C)NC(=O)[C@H](Cc1c[nH]c2ccccc12)NC(=O)CNC(=O)[C@H](CCCN=C(N)N)NC(=O)[C@@H](N)CCCN=C(N)N)C(=O)N[C@@H](CCCN=C(N)N)C(=O)N[C@@H](CC(C)C)C(=O)N[C@H](C(=O)N[C@@H](CC(C)C)C(=O)N[C@@H](C)C(=O)N[C@@H](Cc1ccc(O)cc1)C(N)=O)C(C)C` [RRGWALRLVLAY], the MIC in [5] is 26 µM and 30 µM.

One may read the MIC as the lowest concentration found to suppress growth. A low value points to greater potency.
